Calls of active or inactive are those of the source.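 How the source made its calls: active means Compounds that kill half the cells at a concentration of 5 micromolar or below, from the fitted or estimated CC50; inactive means CC50 above 5 micromolar.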
Tested on: Jurkat E6.1 viability, ATP luminescence, 48 h
Test: viability loss in Jurkat T cells – cell-based, ATP luminescence, 48 h, 60K MLSMR, cytotoxicity control, dose response (AID 464)

Structure (SMILES)	CC50
COc1cc(C2CC(=O)c3c([nH]c(C(=O)OCCOC(C)C)c3C)C2)cc(OC)c1OC (stereo not given)	6.55 µM (inactive)
COc1ccc(S(=O)(=O)Nc2cc(Cl)ccc2OC)cc1	1.01 µM
CCOC(=O)c1[nH]c(C)c(C(=O)Nc2ccccc2C)c1C	0.63 µM
O=C1C2C3C=CC(CO)(O3)C2C(=O)N1c1ccccc1-c1ccccc1 (stereo not given)	6.29 µM (inactive)
Cc1onc(-c2ccccc2)c1C(=O)Nc1cc(C(F)(F)F)ccc1N1CCOCC1	2.15 µM
Fc1ccc(Br)cc1C1C=C(c2cccnc2)Nc2ncnn21 (stereo not given)	8.76 µM (inactive)
COc1ccccc1N1CCN(C(=O)C2c3ccccc3Oc3ccccc32)CC1	1.27 µM
CCCC(=O)Nc1nc2ccc(S(=O)(=O)N3CCCCC3)cc2s1	2.82 µM
COc1cc(NS(=O)(=O)c2ccc3c(c2)oc(=O)n3C)cc(OC)c1OC	5.88 µM (inactive)
CCOC(=O)C1(Nc2nccs2)Sc2ccccc2NC1=O (stereo not given)	3.66 µM
Cc1ccc(C(=O)CCNc2ccc(F)c(Cl)c2)o1	6.26 µM (inactive)
O=C(Nc1nc(-c2ccc3c(c2)OCCO3)cs1)c1ccc(S(=O)(=O)N2CCCCC2)cc1	8.3 µM (inactive)
Cn1c(C(=O)NCc2cccs2)cc2oc3ccccc3c21	> 40 µM (inactive)
Cc1ccc2[nH]c3c(NCc4ccco4)ncnc3c2c1	18.7 µM (inactive)
CC(C)Cc1cc(C(=O)Nc2cc(Br)ccc2O)no1	> 40 µM (inactive)
COc1ccc(C)c(Cn2c(-c3nonc3N)nc3ccccc32)c1	1.97 µM
CCOc1ccccc1C1CC(=O)Nc2cc3c(cc21)OCCO3 (stereo not given)	0.625 µM
COc1cc(C(=O)N2CCN(c3ccc(C)cc3C)CC2)cc(OC)c1OC	1.69 µM
Nc1c(C(=O)Nc2ccc3c(c2)OCCO3)nnn1CCc1ccccc1	4.23 µM
COc1cc(NS(=O)(=O)c2ccc(C)cc2)c2ncccc2c1	10.1 µM (inactive)
N#CC1=C(N)Oc2cc(N)ccc2C1C1CC=CCC1 (stereo not given)	> 4.4 µM (inactive)
CCOC(=O)c1c(C)c(C(=O)Nc2ccc(N(C)C)cc2)c(C)n1CC	5.84 µM (inactive)
CCc1nnc(NC(=O)CSc2nnc(-c3ccccc3O)n2-c2ccc(C)cc2C)s1	4.43 µM
CC1=C(C(=O)OCc2ccc3c(c2)OCO3)C(c2ccc(F)cc2)NC(=O)N1 (stereo not given)	3.57 µM
Cc1cc(C)nc(SCC(=O)Nc2ccc(N3CCOCC3)c(Cl)c2)n1	5.6 µM (inactive)
Cc1cc(NC(=O)CCCS(=O)(=O)c2nc(-c3cccs3)cc(C(F)(F)F)n2)no1	2 µM
CCCCCCOc1ccc(/C(N)=N/O)cc1	6.87 µM (inactive)
CCOC(=O)c1oc2ccc(S(=O)(=O)Nc3ccc4c(c3)n(C)c(=O)n4C)cc2c1C	11.3 µM (inactive)

Structure (SMILES)	CC50
Cc1c(C(=O)OCc2ccccc2)[nH]c2c1C(=O)CC(c1ccco1)C2 (stereo not given)	0.499 µM
N=c1c2c(n(Cc3ccccc3)c3c1CCC3)CCC2	3.66 µM
O=C(CSc1nc(-c2ccco2)cc(C(F)(F)F)n1)Nc1ccc2c(c1)OCO2	5.19 µM (inactive)
Cc1cc2c(N=O)c(NO)ccc2[nH]1	1.97 µM
COC(=O)c1ccccc1NC(=O)Cn1c(-c2nonc2N)nc2ccccc21	0.245 µM
Cc1c(C(=O)OCCOC(C)C)[nH]c2c1C(=O)CC(c1ccco1)C2 (stereo not given)	0.156 µM
CS(=O)(=O)c1ncc(Cl)c(C(=O)Nc2ccc(N3CCOCC3)cc2)n1	2.61 µM
CC(=O)c1ccc(Oc2cc(C)nc(-n3nc(C)cc3C)n2)cc1	0.293 µM
Cc1ccc(S(=O)(=O)NCc2ccncc2)cc1	2.87 µM
CCOc1cc(C(=O)N2CCc3cc(OC)c(OC)cc3C2)ccc1OC(F)F	0.366 µM
O=C(CCNc1ccc(F)c(Cl)c1)c1ccco1	> 13 µM (inactive)
CC1=C(C(=O)OCc2ccc3c(c2)OCO3)C(c2ccc(Cl)cc2)NC(=O)N1 (stereo not given)	12.6 µM (inactive)
CNc1nc(C)c(C(=O)OCc2ccccc2)s1	9.81 µM (inactive)
O=C(CSc1nnnn1-c1ccc2c(c1)OCO2)NCc1ccccc1	> 4.4 µM (inactive)
COc1ccc(CC(=O)Nc2nc(C)cs2)cc1OC	23.4 µM (inactive)
CC(C)(C)n1ncc2c(=O)n(CC(=O)NCc3ccc(F)cc3)cnc21	5.13 µM (inactive)
Cc1ccc(Cl)cc1N1CCN(C(=O)COc2ccc(S(=O)(=O)NC(C)C)cc2)CC1	6.43 µM (inactive)
Cn1cc(/C=N/n2cnc3scc(-c4ccc(Cl)cc4)c3c2=O)c2ccccc21	0.373 µM
Cc1cc(C)n(-c2nnc3n2N=C(c2c[nH]c4ccccc24)CS3)n1	> 4.4 µM (inactive)
COc1cccc(N2C(N)=NC(N)=NC2(C)C)c1	2.58 µM
Cc1ccccc1OCC(=O)Nc1ccc(N2CCN(C(=O)C(C)C)CC2)c(Cl)c1	> 40 µM (inactive)
CCOC(=O)C1=C(CNCc2ccc(C)cc2)NC(=O)NC1c1ccc(OC)cc1 (stereo not given)	> 40 µM (inactive)
O=S1(=O)C=C(Sc2nnc(-c3ccccc3)o2)c2ccccc21	> 13 µM (inactive)
O=C(Nc1cc(N2CCOCC2)ncn1)NC1(C(F)(F)F)Oc2ccc(Cl)cc2O1 (stereo not given)	4.81 µM
CCc1ccc(CCC(=O)Nc2sc3c(c2C#N)CCCC3)o1	3.05 µM
COC(=O)c1ccc(Oc2cc(C)nc(SC)n2)cc1	1.68 µM
CC1CC(C)CN(S(=O)(=O)c2ccc(C(=O)Nc3nnc(-c4cccs4)o3)cc2)C1 (stereo not given)	12.9 µM (inactive)
